Square brackets hold non-standard residues; d marks the D form. Ends that are not written are not given here. pS = N[C@@H](COP(=O)(O)O)C(=O)O
What was measured:
Assay type in all cases: in vivo
[1] = test system: mammary gland of lactating dairy cows; experiment: Field study of involution induction: change of pH in milk samples after a single intramammary infusion at dry-off; conditions: difference in pH vs Day 0, single intramammary infusion, peptides 4 mg in 10 ml, casein hydrolyzate 20 ml
Description: (§1) A filed study was performed to assess the potential of a single intramammary dose of the synthetic peptides of the invention administered at dry (i.e. at the day in which milking is ceased), to induce rapid involution.
(§2) Total of 107 dairy cows were enrolled to the study, of which 45 received treatment and 62 served as a control. All cows were dairy cows at their first or further lactation that stand the inclusion/exclusion criteria. The study was a controlled blinded case-control study.
(§3) Case subjects received one dose by intramammary infusion of a particular peptide. Controls were lactating cows that received the following products by intramammary administration:
(§4) Five groups of 9 cows (total of 36 udder quarters per group) were scheduled as case groups. Each group was treated with one out of the five (5) phosphopeptides described in Example 1 hereinabove (P241210-01-01; 03; 05; 07 and 09). The peptides were administered once via intramammary infusion of 10 ml containing 4 mg peptide.
(§5) Set one: Five groups of 9 cows (total of 36 udder quarters per group) were scheduled as a first control set. Each group was treated with one out of the five (5) dephosphorylated peptides described in Example 1 hereinabove (P241210-01-02; 04; 06; 08 and 10). The peptides were administered once via intramammary infusion of 10 ml containing 4 mg peptide.
(§6) (i) Eleven cows (total of 44 udder quarters) treated with casein hydrolyzate (20 ml) administered once via intramammary infusion of 20 ml (around 1.8 mg/ml casein phosphopeptide (CPP), total=36 mg CPP for 20 ml)
(§7) All treatments (peptides, casein hydrolyzate and saline) were administered at the time point scheduled for cessation of milking (dry off). The day of administration was set as Day 0.
(§8) Sets of aseptic milk samples were collected in two separate vials once a day in the milking facility after the morning milking, on Day 0 and in post-treatment days 1, 2 and 3. The sampling time points were set to up to three days after treatment administration to ensure sufficient milk secretion for the measurements of all involution parameters. The volume of the samples was between 30 to 50 ml. The pH of the milk sample was measured in situ using a Cyberscan pH11 meter (Eutech Instruments, Singapore). The apparatus was calibrated each day by immersing the receptor in standard buffers of pH 7.0 and pH 4.01. Measurements were taken twice for each sample obtained from a mammary gland, with an interval of 30 seconds between measurements. pH measurement was repeated on-site by using the same sample vial. Before double-pH measurement, the milk sample vials were gently shaken three (3) times. After the pH measurement, the milk samples vials were kept in cool storage with a preservative product (Broad Spectrum Microtabs II—Bronopol and Metamycin—D&F Control System Inc., Two Technology Way, Norwood Mass. 02062 USA).
(§9) Endpoint Measures: pH, lactose and somatic cell counts (SCC) values from milk secretions at day 0 and during three (3) days post-treatment were taken. Results are described as the difference between the measures at each of the 3 days post treatment and the measured level at Day 0.
Table 2 below summarizes the effect of the peptides examined and of casein hydrolyzate (CNH) on the pH of milk samples taken 1, 2 and 3 days after the one-dose treatment with each peptide or CNH. The results are presented as the difference in pH value between each of the days post treatment and Day 0 (before treatment).

[2] = test system: mammary gland of lactating dairy cows; experiment: Field study of involution induction: change in lactose content of milk samples after a single intramammary infusion at dry-off; conditions: difference in lactose concentration vs Day 0, single intramammary infusion, peptides 4 mg in 10 ml, casein hydrolyzate 20 ml
Description: as §1, §2, §3, §4, §5, §6, §7, §8
Lactose values in the milk samples were determined at the Central Laboratory of Milk Quality, Caesaria Industrial Park, Israel, according to ISO 2266211DF 198:2007.
Data from six quarters were excluded from the analysis of lactose changes. Data from one of those quarters were omitted due to a missing initial value. For the other five quarters, lactose concentrations taken during the three follow-up days could not be analyzed due to a rapid mammary involution process, resulting in non-sufficient milk sample for lactose analysis.
as §9
One of the most significant outcomes of involution in terms of milk composition is a reduction in lactose content. Thus, lactose concentration was also measured in the milk samples taken before and after peptide or CNH administration as described for the pH measurements hereinabove. […]

[3] = test system: mammary gland of lactating dairy cows; experiment: Field study of involution induction: change in somatic cell counts in milk samples after a single intramammary infusion at dry-off; conditions: change vs Day 0, calculated from log transformation of raw data, single intramammary infusion, peptides 4 mg in 10 ml, casein hydrolyzate 20 ml
Description: as §1, §2, §3, §4, §5, §6, §7, §8
Somatic cell count was also determined in milk samples by Fossomatic 360 (Foss Electric, Hillerod, Denmark), and based on guidelines from the USA National Mastitis Council. Laboratory Handbook on Bovine Mastitis. 1999. Ed. National Mastitis Council, Verona, Wis. 53593 USA.
as §9
Additional parameter that may be used to establish the progression of the involution process is the presence of somatic cells within the milk. The increase in cell count within the milk is the result of high degree of apoptotic epithelial cell death associated with involution. […] The results presented in the table were calculated from log transformation of the raw data that were highly variable.

## Lys-Ser(P)-Ser(P)-Ser(P)-Glu-Glu-NH2 (K[pS][pS][pS]EE-NH2; N-terminus assumed; SMILES NCCCC[C@H](N)C(=O)N[C@@H](COP(=O)(O)O)C(=O)N[C@@H](COP(=O)(O)O)C(=O)N[C@@H](COP(=O)(O)O)C(=O)N[C@@H](CCC(=O)O)C(=O)N[C@@H](CCC(=O)O)C(N)=O) [E(p), casein-derived peptide, positive control]
[1]; Day 1 post treatment
  Changes of pH in milk samples, Day 1, Mean: 0.045
[1]; Day 2 post treatment
  Changes of pH in milk samples, Day 2, Mean: 0.061
[1]; Day 3 post treatment
  Changes of pH in milk samples, Day 3, Mean: 0.128
[2]; Day 1 post treatment
  Changes in Lactose content in milk samples, Day 1, Mean: −0.354
[2]; Day 2 post treatment
  Changes in Lactose content in milk samples, Day 2, Mean: −1.530
[2]; Day 3 post treatment
  Changes in Lactose content in milk samples, Day 3, Mean: −2.042
[3]; Day 1 post treatment
  Changes in Somatic Cell Counts in milk samples, Day 1, Mean: 0.060
[3]; Day 2 post treatment
  Changes in Somatic Cell Counts in milk samples, Day 2, Mean: 1.175
[3]; Day 3 post treatment
  Changes in Somatic Cell Counts in milk samples, Day 3, Mean: 1.847

Reference: patent US9487557B2, “Peptides for management of lactation” (MILEUTIS LTD., priority 2012, dated 2016)
